Here are results for 8 compounds from patent CN111686108A, “表小檗碱在制备抗幽门螺旋杆菌感染药物中的应用” (Southwest University, priority 2020, dated 2020).

Broadly, the MIC is the smallest concentration in the dilution series that meets the test's criterion for growth inhibition.

One data set has as its target BACE1 (Homo sapiens, UniProt P56817). To be noted: in words; background; cited from earlier work.
For data set [1], the target named is cytochrome P450 isoform CYP2D6 [细胞色素P450亚型CYP2D6] (Homo sapiens, UniProt P10635). To be noted: in words; background; cited from earlier work.
Sequence of cytochrome P450 isoform CYP2D6 [细胞色素P450亚型CYP2D6] (P10635 whole entry, canonical isoform): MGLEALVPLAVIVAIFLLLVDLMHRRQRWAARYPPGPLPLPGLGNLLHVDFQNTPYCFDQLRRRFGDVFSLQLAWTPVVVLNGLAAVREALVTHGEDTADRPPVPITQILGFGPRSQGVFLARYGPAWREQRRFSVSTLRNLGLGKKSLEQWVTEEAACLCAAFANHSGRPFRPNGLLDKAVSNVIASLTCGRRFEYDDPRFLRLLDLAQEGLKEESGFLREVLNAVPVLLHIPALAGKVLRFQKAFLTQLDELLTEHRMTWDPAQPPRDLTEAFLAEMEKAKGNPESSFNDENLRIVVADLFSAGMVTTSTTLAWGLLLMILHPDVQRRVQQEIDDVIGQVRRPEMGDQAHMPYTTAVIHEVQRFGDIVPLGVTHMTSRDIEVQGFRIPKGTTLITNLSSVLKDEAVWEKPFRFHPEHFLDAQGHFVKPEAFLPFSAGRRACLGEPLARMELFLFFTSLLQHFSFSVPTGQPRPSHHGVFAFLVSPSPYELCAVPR
For data set [2] the following is noted: in words, background; cited from earlier work.
A further data set deals with aldose reductase [醛糖还原酶] (Homo sapiens, UniProt P15121). To be noted: in words; background; cited from earlier work.
Data set [3] has as its system Helicobacter pylori 11637 [幽门螺旋杆菌(11637)]. In words: MIC determination by two-fold (倍半) dilution on MH agar, single drugs and mixed drugs, H. pylori 11637. Type of data set: cell-based. To be noted: for MIC: Helicobacter pylori.
The test system of the next data set is α receptor [α受体]. To be noted: in words; background; cited from earlier work.
The mark [4] stands for this setting: drug alone, H. pylori 11637, MH agar, 85%N2, 10%CO2, 5%O2, 48~72h, read-out: MIC.

Structures are written as SMILES. In brackets after ≈: the same amount, converted by molar mass. Like-named read-outs stand apart in the source and are kept apart here.

Sequence of BACE1 (P56817 46-501, species assumed): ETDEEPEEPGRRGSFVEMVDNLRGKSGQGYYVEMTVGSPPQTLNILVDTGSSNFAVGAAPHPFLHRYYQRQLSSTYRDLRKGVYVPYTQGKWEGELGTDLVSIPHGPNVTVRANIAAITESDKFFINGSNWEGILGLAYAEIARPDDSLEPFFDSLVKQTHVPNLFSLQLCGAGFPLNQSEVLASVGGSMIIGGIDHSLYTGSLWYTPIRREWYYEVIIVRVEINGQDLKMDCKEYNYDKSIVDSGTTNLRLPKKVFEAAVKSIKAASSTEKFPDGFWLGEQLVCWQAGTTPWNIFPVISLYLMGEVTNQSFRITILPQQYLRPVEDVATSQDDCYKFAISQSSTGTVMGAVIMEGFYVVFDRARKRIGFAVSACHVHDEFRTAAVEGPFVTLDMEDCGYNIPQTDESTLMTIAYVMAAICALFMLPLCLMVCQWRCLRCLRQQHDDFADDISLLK

`COc1cc2c(cc1OC)-c1cc3ccc4c(c3c[n+]1CC2)OCO4` [e-BBR, 表小檗碱]: the BACE1 inhibitory activity result at BACE1 is on record as “非竞争性BACE1抑制活性”. In addition, in data set [1], the “inhibitory activity on CYP2D6” value is given as “较强的抑制活性”. In data set [2], the “in vitro hypoglycaemic activity” value is on record as “体外降血糖活性”. The “inhibition of aldose reductase activity” value on aldose reductase [醛糖还原酶] was “抑制醛糖还原酶活性”. Moreover, the MIC in data set [3] (setting [4]) is 100 µg/mL. Also, the anti-Hp activity result in data set [3] (in words, compared with berberine (小檗碱), from table 1) is “低于小檗碱”. Further, in the data set with α receptor [α受体], the “α receptor blocking effect” value is “α受体阻断作用”.

Consider `CC[C@H]1OC(=O)[C@H](C)[C@@H](O[C@H]2C[C@@](C)(OC)[C@@H](O)[C@H](C)O2)[C@H](C)[C@@H](O[C@@H]2O[C@H](C)C[C@H](N(C)C)[C@H]2O)[C@](C)(OC)C[C@@H](C)C(=O)[C@H](C)[C@@H](O)[C@]1(C)O` [克, 克拉霉素], for which the MIC in data set [3] (setting [4]) is 0.1 µg/mL (≈ 0.134 µM). Same read-out and setting: then `Cc1ncc([N+](=O)[O-])n1CCO` [甲, 甲硝唑], with 1.56 µg/mL (≈ 9.11 µM); and `C[C@H]1COc2c(N3CCN(C)CC3)c(F)cc3c(=O)c(C(=O)O)cn1c23` [左, 左氧氟沙星], with 3.1 µg/mL (≈ 8.58 µM). With `COc1ccc2[nH]c([S+]([O-])Cc3ncc(C)c(OC)c3C)nc2c1` (stereo not drawn) [奥, 奥美拉唑], the MIC in data set [3] (setting [4]) was determined as 100 µg/mL (≈ 289 µM). On the same count and under the same terms, to `O=C1OCCN1/N=C/c1ccc([N+](=O)[O-])o1` [呋, 呋喃唑酮] belongs 1.56 µg/mL (≈ 6.93 µM); to `CC1(C)S[C@@H]2[C@H](NC(=O)[C@H](N)c3ccc(O)cc3)C(=O)N2[C@H]1C(=O)O` [阿, 阿莫西林], 0.05 µg/mL (≈ 0.137 µM). In the case of `COc1ccc2cc3[n+](cc2c1OC)CCc1cc2c(cc1-3)OCO2.[Cl-]` [BBR, 小檗碱盐酸盐], in data set [3] (72 h), the lowest concentration to inhibit growth (MIC) was 50 µg/mL. Moreover, the synergistic effect result in data set [3] (in words, combined with omeprazole (奥美拉唑), from table 1) was “有一定的协同作用”.
